Converted amounts (≈) assume the structure as drawn.
What was measured:
[1] = tested on: Hut 78 (T-cell Leukemia cell); assay: MTT cytotoxicity to tumor cell strains, Hut 78; assay type: cell-based; settings: Homo sapiens, HuT78; Hut 78, MTT; read-out: Cell activity (IC50, μg/ml) Hut 78
Procedure: (§1) The cytotoxicity of samples to tumor cell strains is determined through MTT.

[2] = tested on: K562: human chronic myeloid leukemia cell strain; assay: MTT cytotoxicity to tumor cell strains, K562; assay type: cell-based; settings: Homo sapiens, read-out: Cell activity (IC50, μg/ml) K562
Procedure: as §1

[3] = tested on: A549 (human lung adenocarcinoma cells); assay: MTT cytotoxicity to tumor cell strains, A549; assay type: cell-based; settings: Homo sapiens, read-out: Cell activity (IC50, μg/ml) A549
Procedure: as §1

histone deacetylase [4] = assay: in vitro inhibition activity on histone deacetylase (rat liver homogenate, MAL fluorescent substrate); assay type: biochemical, rats; settings: n = 4, 37° C., 16 hours
Procedure: A 96-well plate (black) for determining […] is made by Costar Company of U.S. The histone deacetylase is obtained by homogenization of liver of rats. The histone deacetylase reacts with small molecular fluorescent substrate MAL such that the substrate MAL is deacetylated to become ML.
The compound to be detected is dissolved with 200 μL of DMSO. The stock solution of the compound to be detected is diluted with PBS to a concentration of the working solution. The histone deacetylase, the MAL fluorescent substrate and the compound to be detected are mixed in a water bath at 37° C. and reacted 16 hours. The final concentration of the compound to be detected is: MS275 and its similar compound: 10, 100 μmol/.
The reaction solution is extracted with ethyl acetate. The extract is pumped in vacuum and thereto added 110 μL of methanol (40%). Taking 50 μL/well to a 96-well plate and making a fluorescent detection at 325/390 nm.
The negative control wherein histone deacetylase is not added to the reaction is 100% inhibition. The control that only contains histone deacetylase without any inhibitor is the background (0% inhibition). The inhibition rate of the sample to be detected=(the detected fluorescent value−the background)/(the fluorescent value of the negative control−background)×100%
The inhibition rate and the standard deviation in the results are the average inhibition percentage and the standard deviation of each parallel well in each dosage group.

[5] = tested on: MDA-MB-435s human breast cancer cells; assay: CCK-8 proliferation inhibition, MDA-MB-435s; assay type: cell-based; settings: Homo sapiens, MDA-MB-435S, CCK-8 method; for inhibition at 10 µM: compound concentration 10 μM; for inhibition at 100 µM: compound concentration 100 μM
In short: (§2)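 Compounds were tested at 100 μM and 10 μM, and inhibition of cell proliferation was measured with the CCK-8 method. Values are reported as percent inhibition at each concentration.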

[6] = tested on: Colo320 human rectal cancer cells; assay: CCK-8 proliferation inhibition, Colo320; assay type: cell-based; settings: Homo sapiens, COLO 320, CCK-8 method; for inhibition at 10 µM: compound concentration 10 μM; for inhibition at 100 µM: compound concentration 100 μM
In short: as §2

[7] = tested on: PANC-1 human pancreatic cancer cells; assay: CCK-8 proliferation inhibition, PANC-1; assay type: cell-based; settings: Homo sapiens; for inhibition at 10 µM: PANC-1, 10 μM; for inhibition at 100 µM: PANC-1, 100 μM
In short: as §2

[8] = tested on: Hep3B2.1-7 human liver cancer cells; assay: CCK-8 proliferation inhibition, Hep3B2.1-7; assay type: cell-based; settings: Homo sapiens, Hep3B, CCK-8 method; for inhibition at 10 µM: compound concentration 10 μM; for inhibition at 100 µM: compound concentration 100 μM
In short: as §2

[9] = tested on: Hut78 T-cell Leukemia cell; assay: CCK-8 proliferation inhibition, Hut78; assay type: cell-based; settings: Homo sapiens, read-out: Hut-78 (inhibition %); for inhibition at 10 µM: HuT78, 10 μM; for inhibition at 100 µM: HuT78, 100 μM
In short: as §2

[10] = tested on: K562 human chronic myeloid leukemia cells; assay: CCK-8 proliferation inhibition, K562; assay type: cell-based; settings: Homo sapiens; for inhibition at 10 µM: K562, 10 μM; for inhibition at 100 µM: K562, 100 μM
In short: as §2

[11] = tested on: PC-3 human prostate cancer; assay: CCK-8 proliferation inhibition, PC-3; assay type: cell-based; settings: Homo sapiens, CCK-8 method; for inhibition at 10 µM: compound concentration 10 μM; for inhibition at 100 µM: compound concentration 100 μM
In short: as §2

[12] = tested on: A549 human lung cancer cells; assay: CCK-8 proliferation inhibition, A549; assay type: cell-based; settings: Homo sapiens, A549, CCK-8 method; for inhibition at 10 µM: compound concentration 10 μM; for inhibition at 100 µM: compound concentration 100 μM
In short: as §2

[13] = tested on: Jurkat E6-1 human T-cell lymphoma; assay: CCK-8 proliferation inhibition, Jurkat E6-1; assay type: cell-based; settings: Homo sapiens; for inhibition at 10 µM: Jurkat E6.1, 10 μM; for inhibition at 100 µM: Jurkat E6.1, 100 μM
In short: as §2

histone deacetylase [14] = assay: in vitro inhibition of histone deacetylase by HDAC inhibitor screening kit (Biovision K340-100); assay type: biochemical
Procedure: An assay for determining the in vitro inhibition activity of the compound on histone deacetylase is conducted according to the specification of HDAC inhibitor screeing kid (Biovision Company/Catalog #K340-100). […]

| Structure (SMILES) | Inhibition rate(%) (histone deacetylase [14]; 3.91 μM) | Inhibition rate(%) (histone deacetylase [14]; 62.5 μM) | inhibition at 10 µM [5] | inhibition at 100 µM [5] | inhibition at 10 µM [6] | inhibition at 100 µM [6] | inhibition at 10 µM [7] | inhibition at 100 µM [7] | inhibition at 10 µM [8] | inhibition at 100 µM [8] | inhibition at 10 µM [9] | inhibition at 100 µM [9] | inhibition at 10 µM [10] | inhibition at 100 µM [10] | inhibition at 10 µM [11] | inhibition at 100 µM [11] | inhibition at 10 µM [12] | inhibition at 100 µM [12] | inhibition at 10 µM [13] | inhibition at 100 µM [13] | further results |
| --- | --- | --- | --- | --- | --- | --- | --- | --- | --- | --- | --- | --- | --- | --- | --- | --- | --- | --- | --- | --- | --- |
| Nc1ccccc1CNC(=O)c1ccc(CNC(=O)OCc2cccnc2)cc1 [V-1, N-(2-aminobenzyl)-4-[(3-pyridylmethoxyacyl)aminomethyl]benzamide] | – | – | – | – | – | – | – | – | – | – | – | – | – | – | – | – | – | – | – | – | IC50 [1]: 12.5 µg/mL (≈ 32 µM); IC50 [2]: > 100 µg/mL; IC50 [3]: > 100 µg/mL; inhibition rate % average number (histone deacetylase [4]; dosage 10 μmol/L): 0.479%; inhibition rate % average number (histone deacetylase [4]; dosage 100 μmol/L): 0.293% |
| O=C(NCc1ccc(C(=O)Nc2cccnc2)cc1)OCc1cccnc1 [V-3, N-(3-pyridyl)-4-[(3-pyridylmethoxyacyl)aminomethyl]benzamide] | – | – | – | – | – | – | – | – | – | – | – | – | – | – | – | – | – | – | – | – | IC50 [1]: 38.8 µg/mL (≈ 107 µM); IC50 [2]: > 100 µg/mL; IC50 [3]: > 100 µg/mL; inhibition rate % average number (histone deacetylase [4]; dosage 10 μmol/L): 0.170%; inhibition rate % average number (histone deacetylase [4]; dosage 100 μmol/L): 0.481% |
| COc1cc(/C=C/C(=O)NCc2ccc(C(=O)Nc3cccnc3N)cc2)cc(OC)c1OC [V-34, N-(2-amino-3-pyridyl)-4-[(3,4,5-trimethoxycinnamoyl)aminomethyl]benzamide] | – | – | 21.5% | 42.9% | 7.3% | 5.9% | 9.2% | 4% | 1% | 28.1% | 9.9% | 53.1% | 12.8% | 61.2% | 7% | 40.2% | -7.4% | 6.2% | 4.7% | 52.7% | IC50 [1]: 68.5 µg/mL (≈ 148 µM); IC50 [2]: > 100 µg/mL; IC50 [3]: > 100 µg/mL |
| Nc1ncccc1NC(=O)c1ccc(CNC(=O)/C=C/c2ccc([N+](=O)[O-])cc2)cc1 [V-36, N-(2-amino-3-pyridyl)-4-[(4-nitrocinnamoyl)aminomethyl]benzamide] | – | – | 30.8% | 61.2% | 7.9% | 14.1% | 20.8% | 39.5% | 11.3% | 40.6% | 8.1% | 60% | 34.1% | 64.8% | -9.4% | 22.1% | 2.4% | 12% | 12.5% | 83.3% | IC50 [1]: 17.1 µg/mL (≈ 40.9 µM); IC50 [2]: > 100 µg/mL; IC50 [3]: > 100 µg/mL |

Second part, led by results:

| Inhibition rate(%) (histone deacetylase [14]; 3.91 μM) | Inhibition rate(%) (histone deacetylase [14]; 62.5 μM) | Structure (SMILES) | inhibition at 10 µM [5] | inhibition at 100 µM [5] | inhibition at 10 µM [6] | inhibition at 100 µM [6] | inhibition at 10 µM [7] | inhibition at 100 µM [7] | inhibition at 10 µM [8] | inhibition at 100 µM [8] | inhibition at 10 µM [9] | inhibition at 100 µM [9] | inhibition at 10 µM [10] | inhibition at 100 µM [10] | inhibition at 10 µM [11] | inhibition at 100 µM [11] | inhibition at 10 µM [12] | inhibition at 100 µM [12] | inhibition at 10 µM [13] | inhibition at 100 µM [13] | further results |
| --- | --- | --- | --- | --- | --- | --- | --- | --- | --- | --- | --- | --- | --- | --- | --- | --- | --- | --- | --- | --- | --- |
| 11.4% | 40.2% | Nc1ncccc1NC(=O)c1ccc(CNC(=O)/C=C/c2cccnc2)cc1 [V-42, N-(2-amino-3-pyridyl)-4-[(3-pyridylacryloyl)aminomethyl]benzamide] | 24.2% | 89.2% | 26.3% | 77% | 20.8% | 50.6% | 21.2% | 58.8% | 28.2% | 55.8% | 27.9% | 67.7% | 81.4% | 89.4% | 56.3% | 88.8% | 62.4% | 93.7% | Inhibition rate(%) (histone deacetylase [14]; 2 mM): 82.4% |
| 24.2% | 55.2% | Nc1cnccc1NC(=O)c1ccc(CNC(=O)/C=C/c2ccc([N+](=O)[O-])cc2)cc1 [V-38] | 16.6% | 73.6% | -0.2% | 44.4% | 5.1% | 40.8% | 11.7% | 63.5% | 39.6% | 86.9% | 54% | 88.2% | 8.7% | 52.6% | 4.2% | 63.7% | 76.9% | 95.1% | Inhibition rate(%) (histone deacetylase [14]; 2 mM): 76.1% |
| 30.4% | 56.8% | Cc1ccc(/C=C/C(=O)NCc2ccc(C(=O)Nc3ccncc3N)cc2)cc1 [V-28] | 25.2% | 88.8% | 6.5% | 58.8% | -1.7% | 52% | 23.5% | 60% | 44.4% | 85.7% | 64.3% | 92.9% | 48.1% | 75.5% | 17.1% | 96.4% | 84.8% | 89.4% | Inhibition rate(%) (histone deacetylase [14]; 2 mM): 66.0% |
| 24.8% | 56.8% | Nc1cnccc1NC(=O)c1ccc(CNC(=O)/C=C/c2ccccc2)cc1 [V-26] | 22.7% | 81.4% | 7.7% | 56.3% | 0.9% | 23.9% | 13.8% | 75.1% | 39.9% | 82.3% | 58.5% | 87.5% | 45.2% | 72.2% | 9.5% | 79.1% | 76.6% | 95.7% | Inhibition rate(%) (histone deacetylase [14]; 2 mM): 58.6% |
| 17.2% | 46.7% | COc1cccc(COC(=O)NCc2ccc(C(=O)Nc3ccncc3N)cc2)c1 [V-95] | 4.2% | 72.5% | -1.9% | 68.8% | 7% | 48.7% | 16.7% | 72% | 8% | 58% | 50.6% | 71.9% | 30.6% | 80% | -12.6% | 48.3% | 21.6% | 93.8% | Inhibition rate(%) (histone deacetylase [14]; 2 mM): 90.6% |
| 12.0% | 32.9% | COc1cc(COC(=O)NCc2ccc(C(=O)Nc3ccncc3N)cc2)cc(OC)c1OC [V-14] | 9.4% | 82.9% | 6.4% | 23.3% | 13% | 19% | 3.7% | 31.3% | 8.1% | 47.5% | 45% | 62.1% | 13.7% | 57.4% | -4.4% | 40.1% | 25.3% | 72.8% | Inhibition rate(%) (histone deacetylase [14]; 2 mM): 77.2% |
